Assay results from PubChem BioAssay (NCI).
Values joined by “and” are separate entries in the source; they are usually repeats but may differ in a detail not shown here. Equal values may be shown once.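 The compound was tested at five concentrations on cells cultured in 96-well plates, with a 48-hour exposure period. The concentration for 50% growth inhibition is given as GI50. The concentration for full growth arrest is given as TGI.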

Experiments:
Assay in all cases: NCI anticancer screen, dose series, 48 h
[1] = tested on: 786-0 renal
[2] = tested on: A498 renal
[3] = tested on: A549 NSCLC
[4] = tested on: ACHN renal
[5] = tested on: BT-549 breast
[6] = tested on: CAKI-1 renal
[7] = tested on: CCRF-CEM leukemia
[8] = tested on: COLO 205 colon
[9] = tested on: DU-145 prostate
[10] = tested on: EKVX NSCLC
[11] = tested on: HCC-2998 colon
[12] = tested on: HCT-116 colon
[13] = tested on: HCT-15 colon
[14] = tested on: HL-60(TB) leukemia
[15] = tested on: HOP-62 NSCLC
[16] = tested on: HOP-92 NSCLC
[17] = tested on: HS 578T breast
[18] = tested on: HT29 colon
[19] = tested on: IGROV1 ovarian
[20] = tested on: K-562 leukemia
[21] = tested on: KM12 colon
[22] = tested on: LOX IMVI melanoma
[23] = tested on: M14 melanoma
[24] = tested on: MALME-3M melanoma
[25] = tested on: MCF7 breast
[26] = tested on: MDA-MB-231 breast
[27] = tested on: MDA-MB-435
[28] = tested on: MDA-N
[29] = tested on: MOLT-4 leukemia
[30] = tested on: NCI-H226 lung
[31] = tested on: NCI-H23 lung
[32] = tested on: NCI-H460 lung
[33] = tested on: NCI-H522 lung
[34] = tested on: NCI/ADR-RES ovarian
[35] = tested on: OVCAR-3 ovarian
[36] = tested on: OVCAR-4 ovarian
[37] = tested on: OVCAR-5 ovarian
[38] = tested on: OVCAR-8 ovarian
[39] = tested on: PC-3 prostate
[40] = tested on: RPMI-8226 leukemia
[41] = tested on: RXF 393 renal
[42] = tested on: SF-268 CNS
[43] = tested on: SF-295 CNS
[44] = tested on: SF-539 CNS
[45] = tested on: SK-MEL-2 melanoma
[46] = tested on: SK-MEL-28 melanoma
[47] = tested on: SK-MEL-5 melanoma
[48] = tested on: SK-OV-3 ovarian
[49] = tested on: SN12C renal
[50] = tested on: SNB-19 CNS
[51] = tested on: SNB-75 CNS
[52] = tested on: SR leukemia
[53] = tested on: SW-620 colon
[54] = tested on: T-47D breast
[55] = tested on: TK-10 renal
[56] = tested on: U251 CNS
[57] = tested on: UACC-257 melanoma
[58] = tested on: UACC-62 melanoma
[59] = tested on: UO-31 renal

In the case of `COc1ccc(COC(=O)NCC(=O)NC(C)C(=O)NC(Cc2ccccc2)C(=O)OCc2ccccc2)cc1` (stereo not given), the TGI [1] is reported as 73.1 µM and 36 µM, the TGI [2] is reported as 38.8 µM and > 100 µM and the GI50 [3] is reported as 18.8 µM and > 100 µM. For the same molecule, the TGI [3] was 41.2 µM and > 100 µM, the TGI [4] was 44.5 µM and 36.7 µM and the GI50 [5] was 22.1 µM and > 100 µM. The TGI [5] was 48.1 µM and > 100 µM, the TGI [6] was 41.5 µM and 65.7 µM and the TGI [7] was > 100 µM and 43.9 µM. For the same molecule, the TGI [8] was 80.8 µM and 52.9 µM, the GI50 [9] was 31.1 µM and > 100 µM and the TGI [9] was over 100 µM. The GI50 [10] was 23.4 µM and 48.7 µM, the TGI [10] was 56.6 µM and > 100 µM and the TGI [11] was 64.3 µM and 37.4 µM. For the same molecule, the TGI [12] was over 100 µM, the TGI [13] was over 100 µM and the GI50 [14] was 3.12 µM and 17.7 µM. The TGI [14] was 10.7 µM and 37.8 µM, the TGI [15] was 54.2 µM and 49.4 µM and the GI50 [16] was 18.2 µM and 40.9 µM. The TGI [16] was 37.8 µM and > 100 µM, the TGI [17] was 70.3 µM and 63.9 µM and the TGI [18] was 86.4 µM and 33.1 µM. For the same molecule, the TGI [19] was over 100 µM, the TGI [20] was > 100 µM and 52.6 µM and the GI50 [21] was 62.8 µM and 23.9 µM. The TGI [21] was > 100 µM and 46.3 µM, the TGI [22] was 79.1 µM and 38.8 µM and the GI50 [23] was 18 µM and 37.5 µM. For the same molecule, the TGI [23] was 31.8 µM and > 100 µM, the TGI [24] was 37.6 µM and 92.3 µM and the TGI [25] was 30.7 µM and 34.9 µM. The TGI [26] was 46.2 µM and 68.3 µM, the TGI [27] was 47.3 µM and 71.7 µM and the TGI [28] was > 100 µM and 62.8 µM. For the same molecule, the GI50 [29] was 8.37 µM and 24.5 µM, the TGI [29] was 55.9 µM and 49.3 µM and the TGI [30] was 55.9 µM and 85.6 µM. For the same molecule, the TGI [31] was over 100 µM, the TGI [32] was 22.7 µM and the TGI [33] was 29.3 µM and 31.1 µM. The TGI [34] was over 100 µM, the TGI [35] was 64.2 µM and 50.7 µM and the TGI [36] was 41.2 µM and 95.1 µM. For the same molecule, the GI50 [37] was 36.3 µM and > 100 µM, the TGI [37] was over 100 µM and the TGI [38] was over 100 µM. For the same molecule, the GI50 [39] was 20 µM and > 100 µM, the TGI [39] was 47.8 µM and > 100 µM and the TGI [40] was > 100 µM and 57.1 µM. The TGI [41] was 82.2 µM, the TGI [42] was > 100 µM and 55.2 µM and the TGI [43] was 47.8 µM and 39.1 µM. The GI50 [44] was 12.6 µM and 28.7 µM, the TGI [44] was 25.1 µM and > 100 µM and the GI50 [45] was 35.5 µM and > 100 µM. For the same molecule, the TGI [45] was 83.3 µM and > 100 µM, the TGI [46] was 39.5 µM and 34.8 µM and the GI50 [47] was 13.8 µM and 56.3 µM. The TGI [47] was 26.8 µM and > 100 µM, the GI50 [48] was 22.9 µM and > 100 µM and the TGI [48] was 42.5 µM and > 100 µM. For the same molecule, the TGI [49] was > 100 µM and 51.9 µM, the GI50 [50] was 21.5 µM and > 100 µM and the TGI [50] was 41.1 µM and > 100 µM. For the same molecule, the GI50 [51] was 21.1 µM and 44.6 µM, the TGI [51] was 60.9 µM and 89.2 µM and the TGI [52] was > 100 µM and 51.7 µM. The TGI [53] was over 100 µM, the TGI [54] was 48.6 µM and 86.2 µM and the GI50 [55] was 39.5 µM and > 100 µM. For the same molecule, the TGI [55] was over 100 µM, the TGI [56] was 44.3 µM and 47.3 µM and the GI50 [57] was 15.7 µM and > 100 µM. The TGI [57] was 29.8 µM and > 100 µM, the GI50 [58] was 18.8 µM and > 100 µM and the TGI [58] was 40.2 µM and > 100 µM. The GI50 [59] was 23.2 µM and 69.6 µM and the TGI [59] was 44.9 µM and > 100 µM.
